Columns and labels:
dengue virus type 1 [1] = assay: Antiviral activity against DENV-1 infected hamster BHK-21 cells assessed as reduction in viral replication incubated for 4 hrs; format: functional, organism-based
dengue virus type 2 [2] = assay: Antiviral activity against DENV-2 infected hamster BHK-21 cells assessed as reduction in viral replication incubated for 4 hrs; format: functional, organism-based
dengue virus type 3 [3] = assay: Antiviral activity against DENV-3 infected hamster BHK-21 cells assessed as reduction in viral replication incubated for 4 hrs; format: functional, organism-based
dengue virus type 4 [4] = assay: Antiviral activity against DENV-4 infected hamster BHK-21 cells assessed as reduction in viral replication incubated for 4 hrs; format: functional, organism-based
THP-1 = assay: Cytotoxicity against human THP-1 cells
HepG2 = assay: Cytotoxicity against human HepG2 cells
dengue virus type 2 [5] = assay: Antiviral activity against DENV-2 RNA-dependent RNA polymerase; format: functional, organism-based
[6] = Toxicity in rat assessed as animal survival at 15 to 30 mg/kg, iv measured for 7 days; format: organism-based; settings: in vivo, dose 15-30 mg/kg, time 7 day, read-out: Activity
[7] = Inhibition of DENV RNA polymerase; set-up: species or system Dengue virus
[8] = Inhibition of DENV RNA-dependent RNA polymerase activity; set-up: species or system Dengue virus
dengue virus type 1 [9] = assay: Antiviral activity against DENV-1 RNA-dependent RNA polymerase infected in African green monkey Vero cells assessed as reduction in viral replication incubated for 2 days by qRT-PCR analysis; format: functional, organism-based; settings: 48 h
dengue virus type 2 [10] = assay: Antiviral activity against DENV-2 RNA-dependent RNA polymerase infected in African green monkey Vero cells assessed as reduction in viral replication incubated for 2 days by qRT-PCR analysis; format: functional, organism-based; settings: 48 h
dengue virus type 3 [11] = assay: Antiviral activity against DENV-3 RNA-dependent RNA polymerase infected in African green monkey Vero cells assessed as reduction in viral replication incubated for 2 days by qRT-PCR analysis; format: functional, organism-based; settings: 48 h
dengue virus type 4 [12] = assay: Antiviral activity against DENV-4 RNA-dependent RNA polymerase infected in African green monkey Vero cells assessed as reduction in viral replication incubated for 2 days by qRT-PCR analysis; format: functional, organism-based; settings: 48 h
dengue virus type 2 [13] = assay: Antiviral activity against DENV-2; format: functional, organism-based
[14] = Binding affinity to DENV-2 RNA-dependent RNA polymerase assessed as dissociation constant using GTP as substrate; set-up: species or system dengue virus type 2
Dengue virus [15] = assay: Antiviral activity DENV infected in African green monkey Vero 76 cells assessed as virus-induced cytopathic effect; format: functional, organism-based
[16] = Inhibition of Dengue virus RNA N7 methyltransferase
[17] = Inhibition of Zika virus RNA N7 methyltransferase
Dengue virus [18] = assay: Antiviral activity against DENV; format: functional, organism-based
Zika virus = assay: Antiviral activity against Zika virus; format: functional, organism-based
NS5 = NS5 (Zika virus, UniProt A0A143MHK7); assay: Inhibition of Zika virus RNA-dependent RNA polymerase
dengue virus type 2 [19] = assay: Antiviral activity against DENV-2 incubated for 72 hrs by MTT assay; format: functional, organism-based
[20] = Inhibition of DENV-3 full length NS5/RNA-dependent RNA polymerase; set-up: species or system dengue virus type 3
dengue virus type 1 [21] = assay: Antiviral activity against DENV-1 NS5 infected in African green monkey Vero cells; format: functional, organism-based
dengue virus type 2 [22] = assay: Antiviral activity against DENV-2 NS5 infected in African green monkey Vero cells; format: functional, organism-based
dengue virus type 3 [23] = assay: Antiviral activity against DENV-3 NS5 infected in African green monkey Vero cells; format: functional, organism-based

NS5, sequence (A0A143MHK7 whole entry): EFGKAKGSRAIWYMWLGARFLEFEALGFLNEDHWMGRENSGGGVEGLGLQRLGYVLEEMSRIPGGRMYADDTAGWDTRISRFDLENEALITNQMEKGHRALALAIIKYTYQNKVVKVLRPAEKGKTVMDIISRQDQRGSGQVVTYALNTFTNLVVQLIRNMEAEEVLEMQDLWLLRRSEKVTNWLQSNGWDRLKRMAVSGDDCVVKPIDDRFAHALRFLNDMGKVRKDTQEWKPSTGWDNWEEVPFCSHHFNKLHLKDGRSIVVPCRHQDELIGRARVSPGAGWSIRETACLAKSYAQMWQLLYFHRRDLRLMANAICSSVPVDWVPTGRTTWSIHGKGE

Compound: IVERMECTIN
- IC50 (dengue virus type 1 [1]): 2320 nM
- IC50 (dengue virus type 2 [2]): 2080 nM
- IC50 (dengue virus type 3 [3]): 1660 nM
- IC50 (dengue virus type 4 [4]): 1900 nM

Compound: OC[C@H]1O[C@@H](n2c3ccc(Cl)cc3c3c(-c4ccco4)ncnc32)[C@H](O)[C@@H]1O
- CC50 (THP-1): 1560 nM
- CC50 (HepG2): 170 nM

Compound: CNC1CN(c2c(F)c(N)c3c(=O)c(C(=O)O)cn(C4CC4)c3c2Cl)CC1OC (configuration not stated)
- EC50 (dengue virus type 2 [5]): 3900 nM

Compound: C[C@@]1(O)[C@H](O)[C@@H](CO)O[C@H]1n1ccc(N)nc1=O
- survival at 168 h [6]: 60%
- IC50 [7]: 11200 nM
- IC50 [8]: 19300 nM
- EC50 (dengue virus type 1 [9]): 2900 nM
- EC50 (dengue virus type 2 [10]): 2800 nM
- EC50 (dengue virus type 3 [11]): 2400 nM
- EC50 (dengue virus type 4 [12]): 2600 nM

Compound: CN1CCN(c2ccc(C(=O)Nc3n[nH]c4ccc(Cc5cc(F)cc(F)c5)cc34)c(NC3CCOCC3)c2)CC1 [ENTRECTINIB]
- EC50 (dengue virus type 2 [13]): 2430 nM
- Kd [14]: 166000 nM

Compound: COc1nc(N)ncc1-c1cn(COCCO)cn1
- EC50 (Dengue virus [15]): 57 nM
- IC50 [16]: 8400 nM
- IC50 [17]: 1700 nM

Compound: Nc1ncnc2c1c(-c1cc3ccccc3o1)cn2[C@@H]1O[C@H](CO)[C@@H](O)[C@H]1O
- EC50 (Dengue virus [18]): 13000 nM
- EC50 (Zika virus): 2200 nM
- IC50 (NS5): 500 nM

Compound: CN[C@@H]1CC[C@@H]2CN(c3c(F)c(N)c4c(=O)c(C(=O)O)cn(C5CC5)c4c3F)C[C@@H]21
- EC50 (dengue virus type 2 [19]): 9200 nM

Compound: CC(=O)Oc1ccc2oc(=O)sc2c1
- IC50 [20]: 287000 nM
- EC50 (dengue virus type 1 [21]): 29500 nM
- EC50 (dengue virus type 2 [22]): 6000 nM
- EC50 (dengue virus type 3 [23]): 29400 nM
